Experimental data from article PMC5431883, “Enhancing Specific Disruption of Intracellular Protein Complexes by Hydrocarbon Stapled Peptides Using Lipid Based Delivery” (Scientific Reports, 2017).
Positions of bridges follow the written chain, without caps; N, C: chain ends. Non-standard residues stand in square brackets, D forms with d. Residues, ends and D or L forms follow the SMILES beside them. Trp(6-Cl) = N[C@@H](Cc1c[nH]c2cc(Cl)ccc12)C(=O)O; Lys(Me2) = CN(C)CCCC[C@H](N)C(=O)O; R8 = C=CCCCCCC[C@@](C)(N)C(=O)O; Cba = N[C@@H](CC1CCC1)C(=O)O; S5 = C=CCCC[C@](C)(N)C(=O)O; Ahx = NCCCCCC(=O)O

Target: T1, Mdm2 (1-125) (Homo sapiens, UniProt Q00987)
T1 construct: Purified MDM2 (1-125) protein was titrated against 50 nM carboxyfluorescein (FAM)-labeled; GST (N, cleaved yes); made in house; host or cells: E. coli BL21 DE3 (pGEX-6P-1)
Assay: Mdm2 competitive fluorescence anisotropy assay (FAM-labeled 12/1 peptide displacement); further: 250 nM MDM2
Type: binding
Settings: read-out: Kd (apparent dissociation constant, competitive fluorescence anisotropy)
Method: analyzed with SDS page gel and concentrated using a Centricon (3.5 kDa MWCO) concentrator, Millipore. Mdm2 protein samples were then dialyzed into a buffer solution containing 20mM Bis-Tris, pH 6.5, 0.05M NaCl with 1mM DTT and loaded onto a monoS column pre-equilibrated in buffer A (20mM Bis-Tris, pH 6.5, 1mM DTT). The column was then washed in 6 column volumes of buffer A and bound protein was eluted with a linear gradient of 1M NaCL over 25 column volumes. Protein fractions were analyzed with SDS page gel and concentrated using a Centricon (3.5 kDa MWCO) concentrator, Millipore.
Protein concentration was determined using A280 using an extinction coefficients […]
Mdm2 Competitive Fluorescence Anisotropy Assay and Kd Determination […]
Dissociation constants for titration of MDM2 against […]
equation shown below:25,26
[P] is the protein concentration (MDM2), [L] is the labeled peptide concentration, r is the anisotropy measured, r0 is the anisotropy of the free peptide, rb is the anisotropy of the MDM2– FAM-labeled peptide complex, Kd is the dissociation constant, [L]t is the total FAM labeled
(1 picture or pasted object on this page, not shown here) […]
peptide concentration, and [P]t is the total MDM2 concentration. […]
respective competing ligands in subsequent competition assays.
Apparent Kd values were determined for a variety of molecules via competitive fluorescence anisotropy experiments. Titrations were carried out with the concentration of MDM2 held constant […]
The competing molecules were then titrated against the complex of the FAM-labeled peptide and protein. Apparent Kd values were determined by fitting the experimental data to the equations shown below:26,27 […]
[L]st and [L]t denote labeled ligand and total unlabeled ligand input concentrations, respectively.
Kd2 is the dissociation constant of the interaction between the unlabeled ligand and the protein. In […]
all competitive types of experiments, it is assumed that [P]t > [L]st, otherwise considerable amounts of free labeled ligand would always be present and would interfere with measurements. Kd1 is the […]
experimentally determined as described in the previous paragraph. The FAM-labeled peptide was dissolved in dimethyl sulfoxide (DMSO) at 1 mM and diluted into experimental buffer. Readings were carried out with an Envision Multilabel Reader (PerkinElmer). Experiments were carried out […]
Tween 20 buffer. All titrations were carried out in triplicate. Curve-fitting was carried out using […]
Negative control titrations of the ligands under investigation were also carried out with the fluorescently labeled peptide (in the absence of MDM2) to ensure no interactions were occurring between the ligands and FAM-labeled peptide. […]
which would otherwise indicate an unintended interaction between the ligand and the FAM-labeled peptide to be displaced from the MDM2 binding site. […]

T1 sequence (Q00987 1-125): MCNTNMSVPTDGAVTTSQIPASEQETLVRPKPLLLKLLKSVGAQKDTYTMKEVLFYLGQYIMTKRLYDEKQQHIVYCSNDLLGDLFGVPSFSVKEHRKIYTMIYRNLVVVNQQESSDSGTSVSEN

SMILES: CC(=O)N[C@@H](CCCCN)C(=O)N[C@@H](CCCCN)C(=O)NCCCCCC(=O)N[C@@H](CC(C)C)C(=O)N[C@H](C(=O)N[C@@H](Cc1ccccc1)C(=O)N[C@]1(C)CCCCCCC=CCCC[C@@](C)(C(=O)N[C@@H](CCC(=O)O)C(=O)N[C@@H](CC(N)=O)C(=O)N[C@@H](Cc2ccccc2)C(N)=O)NC(=O)[C@H](CC(C)C)NC(=O)[C@H](CC(C)C)NC(=O)[C@H](C)NC(=O)[C@H](Cc2c[nH]c3ccccc23)NC(=O)[C@H](Cc2ccc(O)cc2)NC(=O)[C@H](CCC(=O)O)NC1=O)[C@@H](C)O [VIP-119] (Ac-KK[Ahx]LTF[R8]EYWALL[S5]ENF-NH2; staple 7-14)
- Kd: 2.7 ± 0.9 nM

SMILES: CC(=O)N[C@@H](CCCCN)C(=O)NCCCCCC(=O)N[C@H](C(=O)N[C@@H](CO)C(=O)N[C@@H](Cc1ccccc1)C(=O)N[C@]1(C)CCCCCCC=CCCC[C@@](C)(C(=O)N[C@@H](CCC(=O)O)C(=O)N[C@@H](CC(N)=O)C(=O)N[C@@H](Cc2ccccc2)C(N)=O)NC(=O)[C@H](CC(C)C)NC(=O)[C@H](CC(C)C)NC(=O)[C@H](C)NC(=O)[C@H](Cc2c[nH]c3ccccc23)NC(=O)[C@H](Cc2ccc(O)cc2)NC(=O)[C@H](CCC(=O)O)NC1=O)[C@@H](C)O [VIP-116]
- Kd: 15.1 ± 1.7 nM

SMILES: CC(=O)N[C@H](C(=O)N[C@@H](CO)C(=O)N[C@@H](Cc1ccccc1)C(=O)N[C@]1(C)CCCCCCC=CCCC[C@@](C)(C(=O)N[C@@H](CCC(=O)O)C(N)=O)NC(=O)[C@H](CC2CCC2)NC(=O)[C@H](CC(C)C)NC(=O)[C@H](C)NC(=O)[C@H](Cc2c[nH]c3cc(Cl)ccc23)NC(=O)[C@H](Cc2ccc(O)cc2)NC(=O)[C@H](CCC(=O)O)NC1=O)[C@@H](C)O [VIP-138] (Ac-TSF[R8]EY[Trp(6-Cl)]AL[Cba][S5]E-NH2; staple 4-11)
- Kd: < 1 nM

SMILES: CC(C)C[C@@H]1NC(=O)[C@H](C)NC(=O)[C@H](Cc2c[nH]c3ccccc23)NC(=O)[C@H](Cc2ccc(O)cc2)NC(=O)[C@H](CCC(=O)O)NC(=O)[C@](C)(NC(=O)[C@H](Cc2ccccc2)NC(=O)[C@H](CO)NC(=O)[C@@H](NC(=O)CCCCCNC(=O)CCCC[C@@H]2SC[C@@H]3NC(=O)N[C@@H]32)[C@@H](C)O)CCCCCCC=CCCC[C@@](C)(C(N)=O)NC(=O)[C@H](CC(C)C)NC1=O [VIP-67]
- Kd: 100 ± 7.7 nM

SMILES: CC(=O)N[C@@H](CCCNC(=N)N)C(=O)N[C@@H](CCCNC(=N)N)C(=O)N[C@@H](CCCNC(=N)N)C(=O)NCCCCCC(=O)N[C@H](C(=O)N[C@@H](CO)C(=O)N[C@@H](Cc1ccccc1)C(=O)N[C@]1(C)CCCCCCC=CCCC[C@@](C)(C(=O)N[C@@H](CCC(=O)O)C(=O)N[C@@H](CC(N)=O)C(=O)N[C@@H](Cc2ccccc2)C(N)=O)NC(=O)[C@H](CC(C)C)NC(=O)[C@H](CC(C)C)NC(=O)[C@H](C)NC(=O)[C@H](Cc2c[nH]c3ccccc23)NC(=O)[C@H](Cc2ccc(O)cc2)NC(=O)[C@H](CCC(=O)O)NC1=O)[C@@H](C)O [VIP-80] (Ac-RRR[Ahx]TSF[R8]EYWALL[S5]ENF-NH2; staple 8-15)
- Kd: 45 ± 4.1 nM

SMILES: CC(=O)N[C@@H](Cc1c[nH]cn1)C(=O)N[C@@H](Cc1c[nH]cn1)C(=O)N[C@@H](Cc1c[nH]cn1)C(=O)NCCCCCC(=O)N[C@H](C(=O)N[C@@H](CO)C(=O)N[C@@H](Cc1ccccc1)C(=O)N[C@]1(C)CCCCCCC=CCCC[C@@](C)(C(N)=O)NC(=O)[C@H](CC(C)C)NC(=O)[C@H](CC(C)C)NC(=O)[C@H](C)NC(=O)[C@H](Cc2c[nH]c3ccccc23)NC(=O)[C@H](Cc2ccc(O)cc2)NC(=O)[C@H](CCC(=O)O)NC1=O)[C@@H](C)O [VIP-79]
- Kd: 130 ± 11.7 nM

SMILES: CC(=O)N[C@@H](CCCCN)C(=O)N[C@@H](CCCCN)C(=O)NCCCCCC(=O)N[C@H](C(=O)N[C@@H](CO)C(=O)N[C@@H](Cc1ccccc1)C(=O)N[C@]1(C)CCCCCCC=CCCC[C@@](C)(C(N)=O)NC(=O)[C@H](CC(C)C)NC(=O)[C@H](CC(C)C)NC(=O)[C@H](C)NC(=O)[C@H](Cc2c[nH]c3ccccc23)NC(=O)[C@H](Cc2ccc(O)cc2)NC(=O)[C@H](CCC(=O)O)NC1=O)[C@@H](C)O [VIP-77]
- Kd: 46.8 ± 3.9 nM

SMILES: CC(=O)N[C@@H](CCCNC(=N)N)C(=O)N[C@@H](CCCNC(=N)N)C(=O)N[C@@H](CCCNC(=N)N)C(=O)NCCCCCC(=O)N[C@H](C(=O)N[C@@H](CO)C(=O)N[C@@H](Cc1ccccc1)C(=O)N[C@]1(C)CCCCCCC=CCCC[C@@](C)(C(N)=O)NC(=O)[C@H](CC(C)C)NC(=O)[C@H](CC(C)C)NC(=O)[C@H](C)NC(=O)[C@H](Cc2c[nH]c3ccccc23)NC(=O)[C@H](Cc2ccc(O)cc2)NC(=O)[C@H](CCC(=O)O)NC1=O)[C@@H](C)O [VIP-78]
- Kd: 78.8 ± 8.2 nM

SMILES: CC(C)C[C@@H]1NC(=O)[C@H](C)NC(=O)[C@H](Cc2c[nH]c3ccccc23)NC(=O)[C@H](Cc2ccc(O)cc2)NC(=O)[C@H](CCC(=O)O)NC(=O)[C@](C)(NC(=O)[C@H](Cc2ccccc2)NC(=O)[C@H](CO)NC(=O)[C@@H](NC(=O)CNC(=O)[C@H](CO)NC(=O)CNC(=O)[C@H](CO)NC(=O)CCCC[C@@H]2SC[C@@H]3NC(=O)N[C@@H]32)[C@@H](C)O)CCCCCCC=CCCC[C@@](C)(C(N)=O)NC(=O)[C@H](CC(C)C)NC1=O [VIP-150]
- Kd: 54.2 ± 5.9 nM

SMILES: CC(=O)N[C@@H](CCCCN)C(=O)N[C@@H](CCCCN)C(=O)N[C@@H](CCCCN)C(=O)NCCCCCC(=O)N[C@H](C(=O)N[C@@H](CO)C(=O)N[C@@H](Cc1ccccc1)C(=O)N[C@]1(C)CCCCCCC=CCCC[C@@](C)(C(=O)N[C@@H](CCC(=O)O)C(=O)N[C@@H](CC(N)=O)C(=O)N[C@@H](Cc2ccccc2)C(N)=O)NC(=O)[C@H](CC(C)C)NC(=O)[C@H](CC(C)C)NC(=O)[C@H](C)NC(=O)[C@H](Cc2c[nH]c3ccccc23)NC(=O)[C@H](Cc2ccc(O)cc2)NC(=O)[C@H](CCC(=O)O)NC1=O)[C@@H](C)O [VIP-115] (Ac-KKK[Ahx]TSF[R8]EYWALL[S5]ENF-NH2; staple 8-15)
- Kd: 11.6 ± 1.2 nM

SMILES: CC(=O)N[C@@H](CCCNC(=N)N)C(=O)NCCCCCC(=O)N[C@H](C(=O)N[C@@H](CO)C(=O)N[C@@H](Cc1ccccc1)C(=O)N[C@]1(C)CCCCCCC=CCCC[C@@](C)(C(=O)N[C@@H](CCC(=O)O)C(=O)N[C@@H](CC(N)=O)C(=O)N[C@@H](Cc2ccccc2)C(N)=O)NC(=O)[C@H](CC(C)C)NC(=O)[C@H](CC(C)C)NC(=O)[C@H](C)NC(=O)[C@H](Cc2c[nH]c3ccccc23)NC(=O)[C@H](Cc2ccc(O)cc2)NC(=O)[C@H](CCC(=O)O)NC1=O)[C@@H](C)O [VIP-118]
- Kd: 39.5 ± 3.9 nM

SMILES: CC(=O)N[C@H](C(=O)N[C@@H](CO)C(=O)N[C@@H](Cc1ccccc1)C(=O)N[C@]1(C)CCCCCCC=CCCC[C@@](C)(C(=O)N[C@@H](CCC(=O)O)C(N)=O)NC(=O)[C@H](CC2CCC2)NC(=O)[C@H](CC(C)C)NC(=O)[C@H](C)NC(=O)[C@H](Cc2c[nH]c3ccccc23)NC(=O)[C@H](Cc2ccc(O)cc2)NC(=O)[C@H](CCC(=O)O)NC1=O)[C@@H](C)O [VIP-71] (Ac-TSF[R8]EYWAL[Cba][S5]E-NH2; staple 4-11)
- Kd: 14 ± 1.1 nM

SMILES: CC(=O)N[C@@H](CCCCN(C)C)C(=O)N[C@@H](CCCCN(C)C)C(=O)NCCCCCC(=O)N[C@H](C(=O)N[C@@H](CO)C(=O)N[C@@H](Cc1ccccc1)C(=O)N[C@]1(C)CCCCCCC=CCCC[C@@](C)(C(=O)N[C@@H](CCC(=O)O)C(=O)N[C@@H](CC(N)=O)C(=O)N[C@@H](Cc2ccccc2)C(N)=O)NC(=O)[C@H](CC(C)C)NC(=O)[C@H](CC(C)C)NC(=O)[C@H](C)NC(=O)[C@H](Cc2c[nH]c3ccccc23)NC(=O)[C@H](Cc2ccc(O)cc2)NC(=O)[C@H](CCC(=O)O)NC1=O)[C@@H](C)O [VIP-131] (Ac-[Lys(Me2)][Lys(Me2)][Ahx]TSF[R8]EYWALL[S5]ENF-NH2; staple 7-14)
- Kd: 25.6 ± 2.6 nM
